Laboratory results: ChEMBL document CHEMBL5346896, “Development of indolealkylamine derivatives as potential multi-target agents for COVID-19 treatment” (Eur J Med Chem, 2023)
Activity calls are given as the source filed them. The rule behind the calls is not given here.

Legend:
Homo sapiens [1] = species: Homo sapiens; assay: Selectivity ratio of pKi for displacement of 2-[125I]iodomelatonin from human melatonin MT1 receptor stably expressed in human HEK293 cell membrane to pKi for displacement of 2-[125I]iodomelatonin from human melatonin MT2 receptor stably expressed in human HEK293 cell membrane
[2] = target: T1, Melatonin receptor type 1B (Homo sapiens, UniProt P49286); assay: Displacement of 2-[125I]iodomelatonin from human melatonin MT2 receptor stably expressed in human HEK293 cell membrane assessed as inhibition constant incubated for 120 mins by rapid filtration based competition binding assay; format: cell membranes
T1 sequence (P49286 whole entry): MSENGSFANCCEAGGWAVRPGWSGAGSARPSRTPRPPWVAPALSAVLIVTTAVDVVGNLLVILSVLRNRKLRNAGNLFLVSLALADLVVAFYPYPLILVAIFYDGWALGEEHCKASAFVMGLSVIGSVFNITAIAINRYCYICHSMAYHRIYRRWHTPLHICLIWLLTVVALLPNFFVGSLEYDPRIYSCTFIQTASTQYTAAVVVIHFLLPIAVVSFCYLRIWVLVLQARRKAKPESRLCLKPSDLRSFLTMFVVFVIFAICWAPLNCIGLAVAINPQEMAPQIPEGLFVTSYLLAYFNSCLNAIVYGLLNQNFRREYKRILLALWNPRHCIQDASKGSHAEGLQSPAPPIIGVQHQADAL

[3] = target: T2, Melatonin receptor type 1A (Homo sapiens, UniProt P48039); assay: Displacement of 2-[125I]iodomelatonin from human melatonin MT1 receptor stably expressed in HEK293 cell membrane assessed as inhibition constant incubated for 120 mins by rapid filtration based competition binding assay; format: cell membranes
Homo sapiens [4] = species: Homo sapiens; assay: Inhibition of CAMKII (unknown origin) using syntide-2 as substrate assessed as maximum efficacy at 50 uM incubated for 30 mins by spectrophotometric analysis relative to control
[5] = target: T2, Melatonin receptor type 1A; assay: Partial agonist activity at human melatonin MT1 receptor expressed in HEK293 cells co-transfected with Galphai9 chimera construct assessed as stimulation of inositol phosphate production by HTRF based assay; format: functional, cell-based
[6] = target: Spike glycoprotein/Angiotensin-converting enzyme 2 (Severe acute respiratory syndrome coronavirus 2) (UniProt Q9BYF1+P0DTC2); assay: Inhibition of d2-labelled SARS-CoV-2 spike protein RBD-terbium labelled SNAP tagged human ACE2 interaction transfected in HEK293 cells at 100 uM preincubated with cells for 1 hrs followed by RBD-d2 addition and measured after 2 hrs by TR-FRET assay relative to control; format: cell-based; conditions: time 3.0 hrs
HEK-293T = assay: Cytotoxicity against HEK293T cells expressing human ACE2 assessed as effect on cell viability; format: toxicity, cell-based
[7] = target: Angiotensin-converting enzyme 2 (Homo sapiens) (UniProt Q9BYF1); assay: Inhibition of recombinant ACE2 (unknown origin) exopeptidase activity using fluorogenic substrate at 0.5 to 10 uM incubated for 1 hrs by fluorescence based analysis; conditions: dose 0.5-10 µM
[8] = Inhibition of CAMKII (unknown origin) using syntide-2 as substrate assessed as maximum efficacy incubated for 30 mins by spectrophotometric analysis; set-up: species or system Homo sapiens
SARS-CoV-2 [9] = assay: Antiviral activity against SARS-CoV-2 infected in African green monkey Vero cells assessed as inhibition of viral replication at 10 uM preincubated with cells for 1 hrs followed by viral infection by FISH-flow quantification analysis; format: functional, organism-based; conditions: Severe acute respiratory syndrome coronavirus 2
SARS-CoV-2 [10] = assay: Antiviral activity against SARS-CoV-2 infected in African green monkey Vero cells assessed as inhibition of viral replication at 1 uM preincubated with cells for 1 hrs followed by viral infection by FISH-flow quantification analysis; format: functional, organism-based; conditions: Severe acute respiratory syndrome coronavirus 2
Vero [11] = assay: Cytotoxicity against African green monkey Vero cells infected with SARS-CoV-2 assessed as effect on cell viability; format: toxicity, cell-based; conditions: chlorocebus sabaeus
Vero [12] = assay: Cytotoxicity against African green monkey Vero cells assessed as effect on cell viability; format: toxicity, cell-based; conditions: chlorocebus sabaeus
[13] = target: Replicase polyprotein 1ab (Severe acute respiratory syndrome coronavirus 2) (UniProt P0DTD1); assay: Inhibition of SARS-CoV-2 main protease transfected in HEK293T cells co-transfected with gain of signal Src and Tat-Luc reporter construct at 1 uM measured 48 hrs post transfection by luciferase based analysis relative to control; format: cell-based
[14] = target: T1, Melatonin receptor type 1B; assay: Partial agonist activity at human melatonin MT2 receptor expressed in HEK293 cells co-transfected with Galphai9 chimera construct assessed as stimulation of inositol phosphate production by HTRF based assay; format: functional, cell-based
[15] = target: Angiotensin-converting enzyme 2 (Homo sapiens) (UniProt Q9BYF1); assay: Inhibition of recombinant ACE2 (unknown origin) exopeptidase activity using fluorogenic substrate at 0.5 to 10 uM incubated for 1 hrs by fluorescence based analysis relative to control; conditions: dose 0.5-10 µM
SARS-CoV-2 [16] = assay: Antiviral activity against SARS-CoV-2 assessed as inhibition of viral replication; format: functional, organism-based; conditions: Severe acute respiratory syndrome coronavirus 2
[17] = target: T2, Melatonin receptor type 1A; assay: Inverse agonist activity at human melatonin MT1 receptor expressed in HEK293 cells co-transfected with Galphai9 chimera construct assessed as stimulation of inositol phosphate production by HTRF based assay; format: functional, cell-based

T2 sequence (P48039 whole entry): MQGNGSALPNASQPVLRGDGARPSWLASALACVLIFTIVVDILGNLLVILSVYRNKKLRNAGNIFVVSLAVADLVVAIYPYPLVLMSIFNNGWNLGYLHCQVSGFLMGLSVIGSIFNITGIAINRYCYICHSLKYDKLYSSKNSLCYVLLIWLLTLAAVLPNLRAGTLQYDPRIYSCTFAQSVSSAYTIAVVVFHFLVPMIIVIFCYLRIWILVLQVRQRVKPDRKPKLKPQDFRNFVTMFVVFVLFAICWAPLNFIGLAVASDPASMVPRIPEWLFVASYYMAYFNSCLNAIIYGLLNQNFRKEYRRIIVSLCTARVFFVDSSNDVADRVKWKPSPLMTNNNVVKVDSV
Chain of Angiotensin-converting enzyme 2 (Homo sapiens) (Q9BYF1 18-805 limits assumed): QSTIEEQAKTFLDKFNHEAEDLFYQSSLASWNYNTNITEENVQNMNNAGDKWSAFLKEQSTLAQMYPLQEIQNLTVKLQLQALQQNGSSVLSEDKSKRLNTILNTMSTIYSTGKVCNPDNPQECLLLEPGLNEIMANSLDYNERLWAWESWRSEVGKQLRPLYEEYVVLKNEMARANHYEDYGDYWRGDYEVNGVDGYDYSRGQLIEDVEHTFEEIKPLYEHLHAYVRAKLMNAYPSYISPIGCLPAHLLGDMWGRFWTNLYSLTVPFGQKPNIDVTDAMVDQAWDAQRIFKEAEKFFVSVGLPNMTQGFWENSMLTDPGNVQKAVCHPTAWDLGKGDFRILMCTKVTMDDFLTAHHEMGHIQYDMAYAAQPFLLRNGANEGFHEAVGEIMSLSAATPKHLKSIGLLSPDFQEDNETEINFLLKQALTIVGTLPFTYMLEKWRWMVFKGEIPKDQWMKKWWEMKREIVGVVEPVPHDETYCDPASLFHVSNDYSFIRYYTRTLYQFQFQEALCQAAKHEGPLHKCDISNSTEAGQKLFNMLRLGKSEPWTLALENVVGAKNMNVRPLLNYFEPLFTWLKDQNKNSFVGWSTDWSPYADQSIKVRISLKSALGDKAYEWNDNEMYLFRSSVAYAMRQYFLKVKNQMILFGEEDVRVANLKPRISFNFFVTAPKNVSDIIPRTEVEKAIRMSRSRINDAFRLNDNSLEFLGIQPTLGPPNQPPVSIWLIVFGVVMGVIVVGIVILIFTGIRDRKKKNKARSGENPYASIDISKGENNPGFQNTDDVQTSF

SMILES	Ratio pKi (Homo sapiens [1])	Ki [2] [µM]	Ki [3] [µM]	Imax (Homo sapiens [4]) [%]	inhibition [6] [%]	inhibition [7]	further results
COC(=O)NCCc1c(C(O)c2ccc(Cl)cc2)[nH]c2ccccc12 (centres undefined)	0.87	5.25	25.1	–	–	–	–
CC(=O)NCCc1c(C(O)c2ccccc2)[nH]c2ccccc12 (centres undefined)	0.93	1	2.75	–	–	–	–
CCC(=O)NCC[C@@H]1CCc2ccc3c(c21)CCO3	–	–	–	20	–	–	–
COC(=O)NCCc1c(C(O)c2ccccc2)[nH]c2ccc(OC)cc12 (centres undefined)	–	0.191	0.891	40	20	inactive	EC50 [5]: < 10 µM; Activity (HEK-293T): Non-Toxic; EC50 [8]: ~25 µM; Activity (SARS-CoV-2 [9]): Active; Activity (SARS-CoV-2 [10]): inactive; Activity (Vero [11]): Non-Toxic; Activity (Vero [12]): Non-Toxic; inhibition [13]: > 70%; EC50 [14]: < 10 µM
COc1ccc(C(O)c2[nH]c3ccc(OC)cc3c2CCNC(C)=O)c(F)c1 (centres undefined)	0.79	0.295	6.76	–	–	inactive	–
COc1ccc2cccc(CCNC(C)=O)c2c1	–	–	–	20	–	–	–
COC(=O)NCCc1c(C(O)c2ccc(OC)cc2F)[nH]c2ccc(OC)cc12 (centres undefined)	1.07	4.9	2.04	–	–	inactive	EC50 [5]: < 10 µM; EC50 [14]: < 10 µM
COc1ccc2[nH]c(C(O)c3ccc(F)cc3)c(CCNC(C)=O)c2c1 (centres undefined)	0.98	4.57	5.37	40	20	inactive	EC50 [5]: < 10 µM; EC50 [8]: ~25 µM; EC50 [14]: < 10 µM
COc1ccc2[nH]c(C(O)c3ccccc3)c(CCNC(C)=O)c2c1 (centres undefined)	0.98	0.977	1.26	–	20	inactive	EC50 [5]: 0.525 µM; EC50 [14]: 0.224 µM
CC(=O)NCCc1c(C(O)c2ccc(Cl)cc2)[nH]c2ccccc12 (centres undefined)	0.99	4.37	4.47	–	20	inactive	–
COC(=O)NCCc1c(C(O)c2ccc(F)cc2)[nH]c2ccc(OC)cc12 (centres undefined)	0.94	0.741	1.82	–	–	inactive	EC50 [5]: 3.16 µM; EC50 [14]: 0.257 µM
COC(=O)NCCc1c(C(O)c2ccc(OC)cc2)[nH]c2ccc(OC)cc12 (centres undefined)	0.94	66.1	110	–	20	inactive	–
COC(=O)NCCc1c(C(O)c2ccccc2)[nH]c2ccccc12 (centres undefined)	0.81	2	22.9	–	–	–	–
COc1ccc(C(O)c2[nH]c3ccc(OC)cc3c2CCNC(C)=O)cc1 (centres undefined)	0.8	0.427	7.59	–	20	inactive	–
COc1ccc2[nH]cc(CCNC(C)=O)c2c1	–	–	–	20	–	–	–
CC(=O)NCC(=O)N[C@@H](CC(=O)O)C(=O)N[C@@H](Cc1ccc(O)cc1)C(=O)N[C@@H](CO)C(=O)N[C@@H](Cc1cnc[nH]1)C(=O)N[C@H]1CSSC[C@@H](C(=O)N[C@H](C(=O)N[C@@H](Cc2ccc(O)cc2)C(=O)N2CCC[C@H]2C(=O)N[C@@H](CC(=O)O)C(=O)N2CCC[C@H]2C(=O)N[C@@H](CCC(=O)O)C(=O)NCC(=O)NCC(=O)NCC(N)=O)[C@@H](C)O)NC(=O)[C@H](CCCCN)NC(=O)[C@H](Cc2c[nH]c3ccccc23)NC(=O)[C@H](Cc2c[nH]c3ccccc23)NC(=O)[C@@H]2CCCN2C(=O)[C@H](Cc2ccc(O)cc2)NC(=O)[C@H](Cc2ccc(O)cc2)NC(=O)[C@H](CCCNC(=N)N)NC(=O)[C@H](CC(C)C)NC(=O)[C@@H]2CCCN2C(=O)[C@H](CO)NC1=O	–	–	–	–	–	–	inhibition [15]: 100%
COc1ccc2[nH]c(C(O)c3ccc(Cl)cc3)c(CCNC(C)=O)c2c1 (centres undefined)	–	0.0513	0.513	40	35	inactive	Activity (HEK-293T): Non-Toxic; EC50 [8]: ~25 µM; Activity (SARS-CoV-2 [9]): inactive; Activity (SARS-CoV-2 [10]): inactive; Activity (Vero [11]): Non-Toxic; Activity (Vero [12]): Non-Toxic; inhibition [13]: < 20%
CN1CC(=O)NC(CCc2c(C(O)c3ccccc3N)[nH]c3ccccc23)C1=O (centres undefined)	0.92	17	41.7	–	–	–	–
O=C(Oc1cncc(Cl)c1)c1cccc2[nH]ccc12	–	–	–	–	–	–	IC50 (SARS-CoV-2 [16]): 2.8 µM
O=C(NCCc1c(C(O)c2ccccc2)[nH]c2ccccc12)C(F)(F)F (centres undefined)	0.94	1.15	2.51	–	–	–	EC50 [17]: < 10 µM
